Reference: PubChem BioAssay (NCI)
“And” between values parts separate entries of the source, which are not always exact repeats. Equal values may be shown once.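 Compound exposure: 48 hours, 5 concentrations, 96-well plates. The concentration for 50% growth inhibition is given as GI50. TGI is the concentration that stops growth completely.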

Columns and labels:
Assay in all cases: NCI-60 cell line screen, 48 h
PC-3 prostate = system: PC-3 prostate
SF-539 CNS = system: SF-539 CNS
M14 melanoma = system: M14 melanoma
SK-MEL-5 melanoma = system: SK-MEL-5 melanoma
NCI-H226 lung = system: NCI-H226 lung
SK-MEL-28 melanoma = system: SK-MEL-28 melanoma
ACHN renal = system: ACHN renal
OVCAR-4 ovarian = system: OVCAR-4 ovarian
MDA-MB-231 breast = system: MDA-MB-231 breast
HS 578T breast = system: HS 578T breast

| Structure (SMILES) | GI50 (PC-3 prostate) [µM] | TGI (PC-3 prostate) | GI50 (SF-539 CNS) | TGI (SF-539 CNS) | GI50 (M14 melanoma) [µM] | TGI (M14 melanoma) | GI50 (SK-MEL-5 melanoma) | TGI (SK-MEL-5 melanoma) | GI50 (NCI-H226 lung) | TGI (NCI-H226 lung) | GI50 (SK-MEL-28 melanoma) | TGI (SK-MEL-28 melanoma) | GI50 (ACHN renal) | TGI (ACHN renal) | GI50 (OVCAR-4 ovarian) [µM] | TGI (OVCAR-4 ovarian) | GI50 (MDA-MB-231 breast) | TGI (MDA-MB-231 breast) | GI50 (HS 578T breast) | TGI (HS 578T breast) |
| --- | --- | --- | --- | --- | --- | --- | --- | --- | --- | --- | --- | --- | --- | --- | --- | --- | --- | --- | --- | --- |
| C#CCOc1cccc(Nc2ncnc3c(NC(=O)C=C)cccc23)c1 | 15.9 | 67.1 µM | 14 µM | 36 µM | 19.4 | 67.8 µM | 14800 nM | 33.1 µM | 25.5 µM | 69.1 µM | 20.6 µM | 88.6 µM | 17.8 µM | 63.4 µM | 37.8 | > 100 µM | 20.7 µM | > 100 µM | 30.3 µM | > 100 µM |
| Nc1cc(Br)c(-c2nnc(CCC(=O)c3nc4ccccc4[nH]3)o2)c(Br)c1 | 2.9 | > 100 µM | 17.3 µM | 60.8 µM | 17.5 | 55.5 µM | 14200 nM | > 100 µM | 22.6 µM | > 100 µM | 6.31 µM | 79 µM | 48 µM | > 100 µM | 5.49 | 78.3 µM | 10.1 µM | 86.8 µM | 3.75 µM | 31.7 µM |
| CC(C)[C@H](O)C(=O)N[C@@H](C)C(=O)N[C@@H]1C(=O)N(C)CCc2ccccc21 | > 100 | > 100 µM | > 100 µM | > 100 µM | > 100 | > 100 µM | > 100000 nM | > 100 µM | > 100 µM | > 100 µM | > 100 µM | > 100 µM | > 100 µM | > 100 µM | > 100 | > 100 µM | > 100 µM | > 100 µM | > 100 µM | > 100 µM |
| CN(C)C(=S)SSC(=S)N(C)C | – | 26.6 µM and > 100 µM and 32 µM | 16.3 µM and 40.8 µM and 10.7 µM | 31.9 µM and > 100 µM and > 45.8 µM | 14.4 | 30 µM and > 61.7 µM and > 51.3 µM | – | > 100 µM and 20.8 µM and 29.2 µM | 21.4 µM and > 78.4 µM and 38.3 µM | 84.6 µM and > 100 µM and > 65.8 µM | 17.8 µM | 42.4 µM and > 89.9 µM and > 54 µM | 15.7 µM and 55.6 µM and 19.7 µM | 30.2 µM and > 100 µM and 37.1 µM | – | 20.8 µM and 8.96 µM and 39.1 µM | – | 42.9 µM and 32 µM and 53.5 µM | 15.2 µM and > 100 µM and 45 µM | 40.9 µM and > 100 µM and > 90.6 µM |
| CC(C)CC(C/C=C1/CC(CO)(COC(=O)C(C)(C)C)OC1=O)CC(C)C (stereo not drawn) | – | 21.2 µM and 21.6 µM | – | 21.3 µM | – | 28 µM and 26.2 µM | 462 nM and 79.4 nM | 18.8 µM and 4.95 µM | 3.34 µM and 14.1 µM | 17.6 µM and 28.5 µM | 28.7 µM | 44.7 µM and 20.8 µM | 11.4 µM and 5.25 µM | 24.1 µM and 21.3 µM | – | 34.9 µM and 30.6 µM | – | 17.4 µM | – | 24.2 µM and 14.7 µM |
| NNCCc1ccc(NC(=O)CCCc2ccc(C(=O)Nc3ccccc3N)cc2)cc1 | 12 | > 100 µM | 9.57 µM | > 100 µM | 15.2 | > 100 µM | 6190 nM | 21.7 µM | 16 µM | > 100 µM | 12.1 µM | > 100 µM | 17.7 µM | > 100 µM | 42.4 | > 100 µM | 17.4 µM | > 100 µM | 37.8 µM | > 100 µM |
| OC(c1cc(-c2ccc(C(F)(F)F)cc2)nc(C(F)(F)F)c1)C1CCCCN1 (stereo not drawn) | 1.72 | 3.37 µM and 6.33 µM | 1.72 µM and 2.39 µM | 3.12 µM and 4.75 µM | – | 3.12 µM and 3.14 µM | 1630 nM and 1860 nM | 2.99 µM and 3.27 µM | 1.73 µM and 2.56 µM | 3.21 µM and 6.83 µM | 1.83 µM and 2.55 µM | 3.27 µM and 5.97 µM | 1.56 µM and 2.37 µM | 2.9 µM and 6.39 µM | – | 5.6 µM | 1.72 µM and 2.42 µM | 3.16 µM and 5.65 µM | 1.96 µM and 3.92 µM | 4.05 µM and 12.2 µM |
| CCCCCCCCCCNC(=O)CI | 1.8 | 3.56 µM | 1.78 µM | 3.22 µM | 1.59 | 3.2 µM | 1960 nM | 4.72 µM | 2.19 µM | 8.84 µM | 1.95 µM | 3.91 µM | 1.65 µM | 3.08 µM | 1.87 | 5.42 µM | 1.66 µM | 3.29 µM | 2.53 µM | 6.79 µM |
| COc1ccc(-c2nc(-c3cc(OC)cc(OC)c3)[nH]c2-c2ccc(OC)cc2)cc1 | 4 | > 100 µM | > 100 µM | > 100 µM | 8.37 | > 100 µM | 1850 nM | 3.7 µM | 5.47 µM | > 100 µM | > 100 µM | > 100 µM | 5.56 µM | > 100 µM | 4.03 | > 100 µM | 6.82 µM | > 100 µM | 8.33 µM | > 100 µM |
| CN(C)CCNCCN | – | > 100 µM | – | > 100 µM | – | > 100 µM | – | > 100 µM | – | > 100 µM | – | > 100 µM | – | > 100 µM | – | > 100 µM | – | > 100 µM | – | > 100 µM |
| O=C(/C=C/c1ccccc1)c1ccccc1 | – | > 10 µM | – | > 10 µM | – | > 10 µM | – | > 10 µM | – | > 10 µM | – | > 10 µM | – | > 10 µM | – | > 10 µM | – | > 10 µM | – | > 10 µM |
| Cn1c(=O)c2c(nc(C(=N)SCC(=O)O)n2C)n(C)c1=O | – | > 100 µM | – | > 100 µM | – | > 100 µM | – | 37.6 µM | – | > 100 µM | – | > 100 µM | – | > 100 µM | – | 85.6 µM | – | > 100 µM | – | > 100 µM |
| COc1ccc(-c2nccn2-c2ccc(OC)cc2)cc1 | 24.9 | > 100 µM | 28 µM | 90.4 µM | 20.5 | 56.7 µM | 14200 nM | 30.4 µM | 18.6 µM | > 70.8 µM | 19.1 µM | 60.6 µM | 5.64 µM | > 57.4 µM | 30.2 | > 100 µM | 16.4 µM | 57.5 µM | 20.9 µM | 74.7 µM |
| CCN(CC)CCCCCCNc1cccc2cc(Br)cnc12 | 3.6 | 17 µM | 6.47 µM | 20.8 µM | 2.05 | 3.93 µM | 1830 nM | 3.27 µM | 11.8 µM | 27 µM | 2.82 µM | 6.76 µM | 4.98 µM | 17.1 µM | 5.05 | 18.9 µM | 1.59 µM | 4.64 µM | 6.03 µM | 28.5 µM |
